Experiments:
[1] = test system: SH-SY5Y human neuroblastoma cells; assay: Generation of intracellular reactive oxygen species (ROS) after hydrogen peroxide, DCFDA fluorescence; format: cell-based
Text: To determine the production of free radicals, the fluorescent probe 2″-7″-dichlorodihydrofluorescein diacetate (DCFDA) was used, which is sensitive to the presence of free radicals, such that when the latter are intracellularly generated there is an increase of fluorescence.
When the fluorescent probe passes into the cell, intracellular esterases hydrolyze the probe, transforming it into DCFH2. Peroxidases, cytochrome C and Fe^2+ can oxidize the probe to DCF in the presence of hydrogen peroxide, and the accumulation of DCF in the cell can be measured as an increase of fluorescence at 530 nm when it is excited at 485 nm.
SH-SY5Y human neuroblastoma cells were cultured following the procedure described in Example 3.
For the fluorescence assays, the cells were seeded in 96-well plates with opaque walls at a density of 10,000 cells/well. […]
To evaluate the effects of compound Ic on the generation of ROS, the cells were incubated with increasing concentrations of compound Ic (0.01 and 0.1 μM) for 24 hours and then they were preincubated with the fluorescent probe DCFDA for 45 minutes. Subsequently, the baseline fluorescence of each well, both of the wells containing cells and compound Ic and of those containing only the cells, was quantified. […] The baseline fluorescence of each well containing compound Ic was subtracted from it in order to obtain the net fluorescence. […]

TNFα = TNFα production in LPS-activated cerebral cortex astrocytes (RT-PCR); format: cell-based, rat; conditions: 0.03 μM, simultaneous with 10 μg/mL LPS for 2 hours
Description: Newborn male rats aged 2-3 days were used. After a craniotomy, both cortices were extracted and deposited in a Petri dish with cold PBS. Under a microscope magnifying lens, the meninges of each cortex were extracted. Once clean, they were submersed in cold DMEM and a mechanical dissection was performed with a pipette. Then, the sample was centrifuged at 1,000 rpm for 5 minutes and the supernatant was decanted. The precipitate was resuspended in DMEM with 20% FBS and a mixture of antibiotics (penicillin/streptomycin). Finally, it was passed through a 70 μm filter and seeded in a 75 cm^2 flask with an aerated filter stopper. The calculation for the seeding of the cells was one flask (15 mL of medium) for every newborn used. […]
Subsequently, the medium of each flask was collected and taken to 50 mL Falcon tubes, they were centrifuged for 5 minutes at 1,000 rpm and the supernatant was decanted. The precipitate was resuspended in DMEM with 10% FBS and antibiotics and the cells were counted for their subsequent seeding.
The induction of inflammation in the astrocytes was performed by means of adding 10 μg/mL lipopolysaccharide together with the compounds to be studied (compound Ic at 0.03 μM and chondroitin sulphate at 10 μM) for 2 hours. […] The quantification was performed by the direct measurement of absorbance at 260/280 nm in a Nanodrop® spectrophotometer. […]

Substance: methyl 2-acetamido-2-deoxy-3-O-(β-D-glucopyranosyluronic acid)-4,6-di-O-sulpho-α-D-glucopyranoside, trisodium salt [compound Ic]
- reduction in the formation of free radicals induced by hydrogen peroxide ([1]; 0.1 μM, 24 hours incubation before 50 μM hydrogen peroxide): 40%
- ROS generated by hydrogen peroxide at 30 and 60 minutes ([1]; cells treated 24 hours with compound (0.01 and 0.1 μM) before 50 μM hydrogen peroxide): significantly reduced
- reduction of the production of TNFα (TNFα): 75%
